One data set addresses T1, Rat CYP2C12 (Rattus norvegicus, UniProt P11510).
T1 sequence (P11510 1-490): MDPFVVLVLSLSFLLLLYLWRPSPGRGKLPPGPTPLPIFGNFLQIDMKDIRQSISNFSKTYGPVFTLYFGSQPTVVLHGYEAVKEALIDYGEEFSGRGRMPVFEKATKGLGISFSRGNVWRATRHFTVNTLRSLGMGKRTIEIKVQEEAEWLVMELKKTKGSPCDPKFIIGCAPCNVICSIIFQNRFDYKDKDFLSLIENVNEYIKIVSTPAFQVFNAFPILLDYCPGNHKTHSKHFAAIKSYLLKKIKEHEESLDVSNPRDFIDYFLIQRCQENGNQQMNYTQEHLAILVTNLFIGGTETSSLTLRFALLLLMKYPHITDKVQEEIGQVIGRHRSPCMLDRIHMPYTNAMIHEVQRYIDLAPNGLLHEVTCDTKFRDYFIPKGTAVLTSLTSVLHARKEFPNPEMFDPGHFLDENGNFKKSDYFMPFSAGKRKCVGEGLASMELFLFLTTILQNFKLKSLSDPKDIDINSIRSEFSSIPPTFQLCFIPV
Put plainly: Turnover of fluorometric substrates by rat CYP2C12. The settings on record: substrate uM: Ia 2, AMMC 20, CEC 40, MFC 50, BFC 50, BQ 40, BzRes 50; 30 min; enzyme 50 nM.

The next data set addresses human CYP3A4 (Homo sapiens, UniProt P08684). The experiment in a line: Enzyme kinetics of substrate turnover by cDNA-expressed CYP3A4. As to conditions: for Vmax: CYP3A4. The arrangement: purchased GENTEST Corporation P202; host or cells: baculovirus/insect cells (microsomes, SUPERSOMES). Type of data set: biochemical. The procedure: The evaluation of compounds of Formula I were performed by measuring the kinetics of turnover using cDNA-expressed cytochromes P450 CYP3A4 and CYP2C8. Vmax and Km values are important for the optimization of the assay conditions and for setting the parameters for inhibition experiments.
Example Compound Ia. […] Final incubation volume was 0.2 ml. […] The activity was quantitated by comparing to a standard curve of fluorescein. Apparent Km and Vmax values were calculated by non-linear regression using SigmaPlot software.

For data set [1], the target named is T2, panel of Human P450 enzymes (Homo sapiens, UniProt P10632).
T2 construct: purchased GENTEST Corporation; host or cells: baculovirus/insect cells (microsomes, SUPERSOMES)
T2 sequence (P10632 1-490): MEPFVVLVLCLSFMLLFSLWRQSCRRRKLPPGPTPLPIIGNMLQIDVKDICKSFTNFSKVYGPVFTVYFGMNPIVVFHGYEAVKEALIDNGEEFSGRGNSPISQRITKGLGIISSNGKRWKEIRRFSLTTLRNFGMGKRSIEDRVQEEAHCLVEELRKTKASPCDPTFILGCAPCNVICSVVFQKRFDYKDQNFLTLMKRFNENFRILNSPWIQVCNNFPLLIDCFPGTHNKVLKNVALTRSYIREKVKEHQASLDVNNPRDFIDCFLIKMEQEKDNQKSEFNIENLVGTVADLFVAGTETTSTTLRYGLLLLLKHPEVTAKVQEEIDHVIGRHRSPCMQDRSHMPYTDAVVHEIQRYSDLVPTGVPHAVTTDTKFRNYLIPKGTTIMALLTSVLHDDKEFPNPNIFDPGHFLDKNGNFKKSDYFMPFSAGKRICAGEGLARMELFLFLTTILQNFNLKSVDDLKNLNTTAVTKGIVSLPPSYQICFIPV
The experiment in a line: Substrate specificity, dealkylation of Compounds Ia and Ib by a panel of human P450 enzymes. Type of data set: biochemical. As to conditions: CYP2C8. The procedure:
(§1) The specificity of several cytochrome P450 enzymes for the dealkylation of Compound Ia (FIG. 1) and Compound Ib (FIG. 2) was examined.
(§2) Example Compounds Ia and Ib. […] Final incubation volume was 0.2 ml.

Data set [2] deals with T3, panel of Human P450 enzymes (Homo sapiens, UniProt P04798).
T3 construct: purchased GENTEST Corporation; host or cells: baculovirus/insect cells (microsomes, SUPERSOMES)
T3 sequence (P04798 1-512): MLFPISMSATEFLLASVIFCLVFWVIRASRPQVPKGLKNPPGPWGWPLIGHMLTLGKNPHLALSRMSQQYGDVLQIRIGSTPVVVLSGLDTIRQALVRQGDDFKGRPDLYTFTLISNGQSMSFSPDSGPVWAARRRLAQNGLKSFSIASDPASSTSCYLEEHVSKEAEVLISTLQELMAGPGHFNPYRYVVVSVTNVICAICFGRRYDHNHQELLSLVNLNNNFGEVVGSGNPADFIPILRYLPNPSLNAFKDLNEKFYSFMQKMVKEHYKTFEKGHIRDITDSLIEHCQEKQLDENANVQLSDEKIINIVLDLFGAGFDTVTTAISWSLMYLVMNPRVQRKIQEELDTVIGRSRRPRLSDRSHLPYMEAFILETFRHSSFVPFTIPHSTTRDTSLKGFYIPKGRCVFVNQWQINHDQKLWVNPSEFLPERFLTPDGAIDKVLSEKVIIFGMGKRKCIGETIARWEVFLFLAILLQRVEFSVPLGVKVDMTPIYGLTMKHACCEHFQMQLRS
The description is as above. The format is biochemical. As to conditions: CYP1A1. As for the experimental part: as §1, §2

Data set [3] has as its system panel of Human P450 enzymes. The data set is described as above. The format is biochemical. As to conditions: CYP2C9*1, CYP2C19, members of the CYP3A family. The procedure: as §1, §2

We go through four compounds from patent publication US6420131B1, “Use of fluorescein aryl ethers in high throughput cytochrome P450 inhibition assays” (Gentest Corporation, priority 1999, dated 2002).

Usually Km stands for the concentration of substrate that gives half-maximal velocity.

human CYP3A4, sequence (P08684 whole entry): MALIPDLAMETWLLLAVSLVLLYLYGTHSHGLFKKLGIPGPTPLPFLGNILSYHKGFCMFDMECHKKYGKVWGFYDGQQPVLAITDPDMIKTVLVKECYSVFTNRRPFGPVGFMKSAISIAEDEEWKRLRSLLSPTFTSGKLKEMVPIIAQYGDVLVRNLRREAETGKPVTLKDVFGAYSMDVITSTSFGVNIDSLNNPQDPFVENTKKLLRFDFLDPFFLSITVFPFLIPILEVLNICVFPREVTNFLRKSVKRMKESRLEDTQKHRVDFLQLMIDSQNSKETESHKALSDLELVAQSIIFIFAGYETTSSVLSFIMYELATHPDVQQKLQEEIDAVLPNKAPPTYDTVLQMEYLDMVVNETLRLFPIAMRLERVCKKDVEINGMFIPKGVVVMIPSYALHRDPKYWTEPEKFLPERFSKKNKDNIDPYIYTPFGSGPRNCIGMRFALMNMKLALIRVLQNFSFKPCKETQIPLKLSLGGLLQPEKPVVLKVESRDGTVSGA

On to `c1ccc(COc2ccc3cccnc3c2)cc1` [BQ, 7-Benzyloxyquinoline], for which the “Turnover Numbers, CYP2C12” value at Rat CYP2C12 is 1.5 pmol product/min/pmol enzyme.

Regarding `COc1ccc2c(C(F)(F)F)cc(=O)oc2c1` [MFC, 7-Methoxy-4-trifluoromethylcoumarin], at Rat CYP2C12, the “Turnover Numbers, CYP2C12” value is listed as 0.24 pmol product/min/pmol enzyme.

Consider `O=c1ccc2nc3ccc(OCc4ccccc4)cc3oc-2c1` [BzRes, 7-benzyloxyresorufin], for which the Vmax at human CYP3A4 came out at 2.3 ± 0.2. For the same compound, at human CYP3A4 (CYP3A4, apparent Km), the Km was 30 ± 7 µM.

For the compound `O=C(OCc1ccccc1)c1ccccc1-c1c2ccc(=O)cc-2oc2cc(OCc3ccccc3)ccc12` [Compound Ia, O-Benzylfluorescein Benzyl Ester], the Vmax at human CYP3A4 stood at 22 ± 0.98. Also, the values for the dealkylation activity result in data set [1], in data set [2] and in data set [3] were “substantial enzyme activity”, “highest activity” and “catalyzed the dealkylation”, respectively.
